Experiment [1] deals with T1, Fibroblast growth factor receptor 4 (Homo sapiens, UniProt P22455).
Experiment [2] has as its target Fibroblast growth factor receptor 3 (Homo sapiens, UniProt P22607).
Experiment [3] addresses Fibroblast growth factor receptor 2 (Homo sapiens, UniProt P21802). In kind it is ADME.
In experiment [4] the target is Fibroblast growth factor receptor 1 (Homo sapiens, UniProt P11362).
In experiment [5] the target is Fibroblast growth factor receptor 4 (Homo sapiens, UniProt P22455, C477A).
Fibroblast growth factor receptor 4 (Homo sapiens, UniProt P22455, C477A), sequence (P22455 22-802 C477A limits assumed): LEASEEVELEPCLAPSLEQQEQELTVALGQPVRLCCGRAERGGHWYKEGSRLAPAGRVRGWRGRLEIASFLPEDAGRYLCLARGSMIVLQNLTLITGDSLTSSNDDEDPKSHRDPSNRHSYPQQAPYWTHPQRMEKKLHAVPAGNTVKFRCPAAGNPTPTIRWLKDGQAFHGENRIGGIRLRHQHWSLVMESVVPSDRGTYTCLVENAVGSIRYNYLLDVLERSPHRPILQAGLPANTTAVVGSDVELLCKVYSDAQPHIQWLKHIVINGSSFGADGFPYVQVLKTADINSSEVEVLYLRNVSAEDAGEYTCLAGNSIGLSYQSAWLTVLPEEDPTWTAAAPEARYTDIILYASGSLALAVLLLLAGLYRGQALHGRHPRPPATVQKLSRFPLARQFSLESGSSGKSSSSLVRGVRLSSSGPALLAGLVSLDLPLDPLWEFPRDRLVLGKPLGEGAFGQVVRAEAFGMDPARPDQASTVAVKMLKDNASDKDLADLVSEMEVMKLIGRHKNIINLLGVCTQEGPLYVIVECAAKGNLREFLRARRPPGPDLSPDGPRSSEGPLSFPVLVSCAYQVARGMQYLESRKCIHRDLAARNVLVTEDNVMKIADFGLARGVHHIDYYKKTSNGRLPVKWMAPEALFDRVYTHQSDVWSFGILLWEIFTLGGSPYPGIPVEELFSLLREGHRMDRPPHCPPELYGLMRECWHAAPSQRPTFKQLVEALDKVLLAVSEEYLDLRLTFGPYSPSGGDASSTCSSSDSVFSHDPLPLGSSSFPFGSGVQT
In experiment [6] the target is Fibroblast growth factor receptor 4 (Homo sapiens, UniProt P22455, C552A).
Fibroblast growth factor receptor 4 (Homo sapiens, UniProt P22455, C552A), sequence (P22455 22-802 C552A limits assumed): as the sequence (P22455 22-802 C477A limits assumed) above, with A456C, C531A counted along it
Experiment [7] addresses T1, Fibroblast growth factor receptor 4. The source holds these as a separate data set.
For experiment [8], the target named is T2, MAP kinase-activated protein kinase 2 (Homo sapiens, UniProt P49137). In words: Inhibition of human MK2 by [gamma33P]ATP assay.
Target sequence in this assay (P49137 whole entry): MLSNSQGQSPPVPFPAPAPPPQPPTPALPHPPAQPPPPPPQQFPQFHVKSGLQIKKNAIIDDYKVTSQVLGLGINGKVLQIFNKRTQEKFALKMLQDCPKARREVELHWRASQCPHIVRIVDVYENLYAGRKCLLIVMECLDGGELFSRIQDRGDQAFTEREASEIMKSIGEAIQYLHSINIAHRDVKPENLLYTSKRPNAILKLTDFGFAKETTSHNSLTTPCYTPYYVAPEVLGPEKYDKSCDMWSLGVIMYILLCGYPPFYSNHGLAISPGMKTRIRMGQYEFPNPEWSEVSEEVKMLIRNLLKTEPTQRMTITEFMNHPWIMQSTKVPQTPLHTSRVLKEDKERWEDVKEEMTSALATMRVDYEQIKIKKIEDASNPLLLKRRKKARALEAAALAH
For experiment [9], the target named is T2, MAP kinase-activated protein kinase 2. Nature of the experiment: Inhibition of human MK2 at 10 uM by [gamma33P]ATP assay.
Target sequence in this assay (P49137 whole entry, looked up): as the sequence (P49137 whole entry) above

SMILES strings stand for the structures. Calls of active or inactive are those of the source. The rule behind the calls is not given here. Bounds are passed on as bounds.

Fibroblast growth factor receptor 3, sequence (P22607 whole entry): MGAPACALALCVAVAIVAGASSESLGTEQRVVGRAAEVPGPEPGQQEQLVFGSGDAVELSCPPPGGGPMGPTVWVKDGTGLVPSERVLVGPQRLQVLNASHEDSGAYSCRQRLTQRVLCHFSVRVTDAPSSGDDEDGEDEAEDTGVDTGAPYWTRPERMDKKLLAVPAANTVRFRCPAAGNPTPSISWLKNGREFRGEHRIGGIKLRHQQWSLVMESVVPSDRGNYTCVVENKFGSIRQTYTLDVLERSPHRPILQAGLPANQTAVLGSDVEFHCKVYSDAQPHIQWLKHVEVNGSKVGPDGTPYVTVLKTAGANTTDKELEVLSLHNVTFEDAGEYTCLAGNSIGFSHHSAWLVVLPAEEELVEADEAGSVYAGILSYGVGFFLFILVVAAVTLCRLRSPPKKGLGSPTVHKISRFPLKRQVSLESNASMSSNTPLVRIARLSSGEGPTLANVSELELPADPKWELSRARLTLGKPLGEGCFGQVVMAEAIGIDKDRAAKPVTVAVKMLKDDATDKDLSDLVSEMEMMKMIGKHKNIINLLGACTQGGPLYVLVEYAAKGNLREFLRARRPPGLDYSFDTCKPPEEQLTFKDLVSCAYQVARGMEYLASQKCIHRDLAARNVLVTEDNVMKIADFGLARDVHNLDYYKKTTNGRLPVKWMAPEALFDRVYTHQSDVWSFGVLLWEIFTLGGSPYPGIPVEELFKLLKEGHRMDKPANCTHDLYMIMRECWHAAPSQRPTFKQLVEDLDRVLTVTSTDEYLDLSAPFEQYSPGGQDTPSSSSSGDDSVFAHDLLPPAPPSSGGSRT
Fibroblast growth factor receptor 2, sequence (P21802 whole entry): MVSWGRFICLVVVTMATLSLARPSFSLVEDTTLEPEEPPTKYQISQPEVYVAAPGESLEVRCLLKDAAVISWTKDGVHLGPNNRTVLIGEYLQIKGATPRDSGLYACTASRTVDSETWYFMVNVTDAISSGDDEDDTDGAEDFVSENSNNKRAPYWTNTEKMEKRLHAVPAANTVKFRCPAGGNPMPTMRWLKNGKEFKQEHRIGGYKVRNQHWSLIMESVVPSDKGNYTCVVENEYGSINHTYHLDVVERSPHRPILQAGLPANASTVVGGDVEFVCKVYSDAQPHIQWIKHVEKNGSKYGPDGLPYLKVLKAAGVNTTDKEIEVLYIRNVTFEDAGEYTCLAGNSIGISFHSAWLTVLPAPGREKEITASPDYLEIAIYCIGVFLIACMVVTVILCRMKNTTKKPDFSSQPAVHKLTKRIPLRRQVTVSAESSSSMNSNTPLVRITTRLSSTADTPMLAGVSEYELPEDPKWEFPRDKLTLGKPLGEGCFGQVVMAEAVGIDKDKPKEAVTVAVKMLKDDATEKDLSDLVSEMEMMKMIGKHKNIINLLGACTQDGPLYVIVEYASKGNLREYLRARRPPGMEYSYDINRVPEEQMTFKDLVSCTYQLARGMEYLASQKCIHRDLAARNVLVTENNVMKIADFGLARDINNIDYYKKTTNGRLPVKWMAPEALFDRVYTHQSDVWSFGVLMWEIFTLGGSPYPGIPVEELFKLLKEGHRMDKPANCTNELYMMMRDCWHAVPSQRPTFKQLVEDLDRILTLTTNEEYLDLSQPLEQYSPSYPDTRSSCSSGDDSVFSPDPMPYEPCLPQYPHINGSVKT
Fibroblast growth factor receptor 1, sequence (P11362 whole entry): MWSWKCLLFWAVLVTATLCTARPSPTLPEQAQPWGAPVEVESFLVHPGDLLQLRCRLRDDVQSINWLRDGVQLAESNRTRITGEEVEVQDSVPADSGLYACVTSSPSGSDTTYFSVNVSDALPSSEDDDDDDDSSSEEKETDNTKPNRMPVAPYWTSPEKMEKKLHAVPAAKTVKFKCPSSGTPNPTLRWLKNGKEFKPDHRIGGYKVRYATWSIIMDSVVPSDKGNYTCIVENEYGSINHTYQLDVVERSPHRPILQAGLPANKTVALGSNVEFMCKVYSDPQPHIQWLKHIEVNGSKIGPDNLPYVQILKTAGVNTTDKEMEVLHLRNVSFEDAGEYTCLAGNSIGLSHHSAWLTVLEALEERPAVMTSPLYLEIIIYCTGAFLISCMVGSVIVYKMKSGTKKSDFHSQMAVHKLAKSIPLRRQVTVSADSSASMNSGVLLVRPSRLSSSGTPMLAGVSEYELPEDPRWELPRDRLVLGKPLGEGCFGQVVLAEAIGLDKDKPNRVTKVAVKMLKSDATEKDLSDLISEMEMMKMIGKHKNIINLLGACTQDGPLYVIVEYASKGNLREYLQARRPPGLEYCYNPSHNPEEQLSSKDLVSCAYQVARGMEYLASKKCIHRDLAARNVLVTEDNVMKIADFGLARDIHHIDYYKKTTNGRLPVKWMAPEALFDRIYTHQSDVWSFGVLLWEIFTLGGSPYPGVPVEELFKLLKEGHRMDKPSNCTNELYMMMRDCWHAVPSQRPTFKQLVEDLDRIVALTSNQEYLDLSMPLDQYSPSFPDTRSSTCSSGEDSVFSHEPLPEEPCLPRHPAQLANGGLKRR
T1 sequence (P22455 whole entry): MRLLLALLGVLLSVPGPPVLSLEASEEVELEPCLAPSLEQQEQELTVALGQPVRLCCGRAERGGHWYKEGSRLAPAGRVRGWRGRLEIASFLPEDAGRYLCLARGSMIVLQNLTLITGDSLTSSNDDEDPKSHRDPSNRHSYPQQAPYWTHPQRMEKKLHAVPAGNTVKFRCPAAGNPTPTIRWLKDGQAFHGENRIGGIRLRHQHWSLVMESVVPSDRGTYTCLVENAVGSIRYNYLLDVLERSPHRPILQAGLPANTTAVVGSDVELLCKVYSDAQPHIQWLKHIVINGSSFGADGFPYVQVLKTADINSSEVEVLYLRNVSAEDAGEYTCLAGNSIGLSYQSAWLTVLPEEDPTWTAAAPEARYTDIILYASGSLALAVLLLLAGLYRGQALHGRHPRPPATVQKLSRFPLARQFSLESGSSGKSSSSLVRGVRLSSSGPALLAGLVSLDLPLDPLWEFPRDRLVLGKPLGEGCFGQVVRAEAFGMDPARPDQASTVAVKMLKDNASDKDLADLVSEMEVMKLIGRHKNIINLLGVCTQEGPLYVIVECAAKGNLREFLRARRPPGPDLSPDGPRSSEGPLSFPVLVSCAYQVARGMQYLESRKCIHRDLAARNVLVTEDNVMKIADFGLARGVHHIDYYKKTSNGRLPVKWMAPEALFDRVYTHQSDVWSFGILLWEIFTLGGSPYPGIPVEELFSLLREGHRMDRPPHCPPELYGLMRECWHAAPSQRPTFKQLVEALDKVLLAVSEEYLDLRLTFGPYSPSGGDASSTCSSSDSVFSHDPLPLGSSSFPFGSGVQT

In general, IC50 refers to the concentration needed to halve the response being measured. For `CC(C)Oc1cc(N2CCC(N3CCN(C)CC3)CC2)ccc1Nc1ncc(Cl)c(Nc2ccccc2S(=O)(=O)C(C)C)n1`, the 50% inhibitory concentration (IC50) in experiment [1] worked out at 0.029 µM; in [2] it was 8 µM; in experiment [3], 4.43 µM; in experiment [4], 6.35 µM.
With `C=CC(=O)Nc1cccc(C)c1Nc1ncc2cc(-c3c(Cl)c(OC)cc(OC)c3Cl)ccc2n1`, the half-maximal inhibitory concentration (IC50) in experiment [2] came out at 0.78 µM; in [3], 1.7 µM; in experiment [4], 3.2 µM.
As for `O=Cc1ccc2cccc(C(=O)Nc3ccc(C(F)(F)F)cc3)c2n1`, the 50% inhibitory concentration (IC50) in experiment [5], in experiment [6] and in experiment [7] was more than 10 µM in each case.
As to `O=Cc1ccc2cccc(C(=O)Nc3ccc(C(F)(F)F)cn3)c2n1`, the IC50 in experiment [2] was more than 10 µM; in experiment [3], more than 10 µM; in experiment [4], more than 10 µM; in experiment [8], 2.3 µM. In experiment [9], the inhibition result was “Active”.
As to `O=[N+]([O-])c1ccc(Cl)nc1Nc1ncc(C(F)(F)F)cc1Cl`, the IC50 in experiment [2], in [3] and in [4] was more than 10 µM in each case.
`O=C(Nc1ccc(C(F)(F)F)cn1)c1cccc2cccnc12`: the IC50 in [5], in experiment [6] and in [7] was more than 10 µM throughout.
Consider `CC(C)COc1cc(N2CCC(N(C)C)CC2)ccc1Nc1ncc(C#N)c(N[C@H]2[C@@H](C(N)=O)[C@@H]3C=C[C@H]2C3)n1`, for which the half-inhibitory concentration (IC50) in experiment [2] is 3.5 µM; in experiment [3], 0.363 µM.

These data come from ChEMBL document CHEMBL4261540, “Approaches to selective fibroblast growth factor receptor 4 inhibition through targeting the ATP-pocket middle-hinge region” (Medchemcomm, 2017).
